Source: US10550165B2, “Peptide for inducing regeneration of tissue and use thereof” (STEMRIM INC., priority 2011, dated 2020)

How the values were obtained:
[1] = tested on: mouse bone marrow mesenchymal stem cell line (MSC-1 cells), PDGFRα-positive; assay: Migration assay (Boyden / 48-well chemotaxis chamber) on bone marrow mesenchymal stem cell line MSC-1; type: cell-based
Procedure, shortened: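 Mouse MSC-1 cells (3×10^6 cells/ml in D-MEM with 10% FBS) loaded in the upper wells of a 48-well Boyden chamber with 8 μm polycarbonate membrane; mouse HMGB1 peptides or HEK293-made HMGB1 in lower wells at 100 μg/ml, 5 μM or 10 μM; PBS as negative control. After 4 h at 37° C, migrated cells were Diff-Quik stained.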

[2] = tested on: skin flap made on the back of a rat; assay: Skin flap (skin damage) model on the back of rats; type: in vivo; conditions: for area of wound section (necrosed section) in the skin flap: FIG. 25
Method: Experimental animals used were SD rats (male, eight weeks old). After sufficiently deep anesthesia by isoflurane inhalation, a rectangular skin incision of 3 cm width×7 cm length was made on the back. The cephalic side was left uncut, and the skin was thoroughly detached from the subcutaneous tissues. The three incised sides were sutured to the surrounding skin using #4 silk suture, and protected with Tegaderm (3M) to prevent bacterial infection.
The full-length mouse HMGB1 (100 μg/administration/day) produced in HEK293 and chemically synthesized HMGB1 peptide (amino acids 1 to 44; 50 μg/administration/day) were diluted to 200 μl with phosphate buffer and administered to rats via the caudal vein. The first administration was performed 6 hours after the surgery, and then the agents were administered every 24 hours a total of five times. Phosphate-buffered physiological saline was administered as a negative control. Tegaderm was removed after one week, and the wound region was observed weekly to measure the areas of necrosis and ulceration.
Experimental animals used were 15 SD rats (male, eight weeks old) per group. After sufficient anesthesia by isoflurane inhalation, a rectangular skin incision of 3 cm width×7 cm length was made on the back. The cephalic side was left uncut, and the skin was thoroughly detached from the subcutaneous tissues. The incised three sides were sutured to the surrounding skin using #4 silk suture, and protected with Tegaderm (3M) to prevent bacterial infection.
Chemically synthesized HMGB1 peptide (amino acids 1-44; 50 μg/administration/day) or HMGB1 peptide (amino acids 17-25; 50 μg/administration/day) was diluted to 200 μl with phosphate buffer and administered to the rats with experimental wound. The first administration was performed 6 hours after the surgery, and then the agents were administered every 24 hours a total of five times. Phosphate-buffered physiological saline was administered as a negative control. Tegaderm was removed after one week, and the wound was observed two weeks after the wound production. Uncured areas (ulceration and necrosis) were measured.

[3] = tested on: skin flap made on the back of a rat; assay: Skin flap (skin damage) model on the back of rats; type: in vivo; conditions: six weeks after skin flap production; 50 μg/administration/day, five administrations, FIG. 26
[4] = 2 μM, area of migrated cells by image analysis, FIG. 10

## synthetic peptide (1-44): chemically synthesized HMGB1 peptide, amino acids 1 to 44, mouse HMGB1 sequence (MGKGDPKKPRGKMSSYAFFVQTCREEHKKKHPDASVNFSEFSKK; UniProt P63158 1-44, looked up, fragment)
[1]; [4]
  migration-promoting activity relative to the full-length HMGB1, compared per equal mass: 2.86 times
  migration-promoting activity relative to the full-length HMGB1, compared per equal mole: 0.57 times
[1]; synthetic peptides, 100 μg/ml, positive control 1-215(HEK), FIG. 7
  migration-promoting activity: activity comparable to or higher than that of the positive control
[2]; after four weeks and later, versus the other two groups
  area of wound section (necrosed section) in the skin flap: a further shrinking effect was observed
[2]; one to three weeks after the skin flap was made, versus negative control
  area of wound section (necrosed section) in the skin flap: effect of shrinking the wound section was confirmed
[2]; one week after surgery, caudal vein, five administrations, full-length 100 μg, peptide 50 μg/administration/day, negative control four of five
  rats in which skin necrosis developed: one of five rats
[2]; seven weeks after surgery, same regimen, negative control four of five, FIG. 24
  rats with severe skin contracture: two of five rats
[2]; two weeks after skin flap production, 50 μg/administration/day, five administrations, 15 SD rats per group, FIG. 26
  ratio of the uncured area relative to the area of the whole skin flap, average: 14.1%
[3]
  ratio of the uncured area relative to the area of the whole skin flap, average: 4.1%
